Measurements: PubChem BioAssay AID330 (DTP/NCI, 2004)
“And” between values parts separate entries of the source, which are not always exact repeats. Identical values can stand only once. Inconclusive results and toxic doses are left out. Rule for the calls: active = survival T/C of 150% or more; inactive = T/C below 125% in these data.

Test system: P388 leukemia ip, CD2F1 mice, survival T/C
Assay: NCI In Vivo Anticancer Drug Screen. Data for tumor model P388 Leukemia (intraperitoneal) in CD2F1 (CDF1) mice
Conditions: endpoint: median survival time, higher = longer survival
Outline: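 Mice carrying the transplanted tumor received test compound or vehicle. Survival was recorded in each group, and the value is the treated-group measurement divided by that of the vehicle-treated control group.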

[1] = dose: 15.0 mg/kg/injection, schedule: Q01DX005 (ip), vehicle: saline
[2] = dose: 30.0 mg/kg/injection, schedule: Q01DX005 (ip), vehicle: saline
[3] = dose: 60.0 mg/kg/injection, schedule: Q01DX005 (ip), vehicle: saline
[4] = dose: 50.0 mg/kg/injection, schedule: Q01DX005 (ip), vehicle: Klucel (hydroxypropylcellulose) (HPC)
[5] = dose: 100.0 mg/kg/injection, schedule: Q01DX005 (ip), vehicle: Klucel (hydroxypropylcellulose) (HPC)
[6] = dose: 50.0 mg/kg/injection, schedule: Q01DX009 (ip), vehicle: saline
[7] = dose: 100.0 mg/kg/injection, schedule: Q01DX009 (ip), vehicle: saline
[8] = dose: 200.0 mg/kg/injection, schedule: Q01DX009 (ip), vehicle: saline
[9] = dose: 12.5 mg/kg/injection, schedule: Q01DX005 (ip), vehicle: saline with Tween-80
[10] = dose: 100.0 mg/kg/injection, schedule: Q01DX005 (ip), vehicle: saline with Tween-80
[11] = dose: 200.0 mg/kg/injection, schedule: Q01DX005 (ip), vehicle: saline with Tween-80
[12] = dose: 100.0 mg/kg/injection, schedule: Q01DX009 (ip), vehicle: saline with Tween-80
[13] = dose: 200.0 mg/kg/injection, schedule: Q01DX009 (ip), vehicle: saline with Tween-80
[14] = dose: 400.0 mg/kg/injection, schedule: Q01DX009 (ip), vehicle: saline with Tween-80
[15] = dose: 50.0 mg/kg/injection, schedule: Q01DX005 (ip), vehicle: saline with Tween-80
[16] = dose: 50.0 mg/kg/injection, schedule: Q01DX009 (ip), vehicle: saline with Tween-80
[17] = dose: 60.0 mg/kg/injection, schedule: Q01DX005 (ip), vehicle: saline with Tween-80
[18] = dose: 120.0 mg/kg/injection, schedule: Q01DX005 (ip), vehicle: saline with Tween-80
[19] = dose: 200.0 mg/kg/injection, schedule: Q01DX005 (ip), vehicle: Klucel (hydroxypropylcellulose) (HPC)
[20] = dose: 100.0 mg/kg/injection, schedule: Q01DX001 (ip), vehicle: saline with Tween-80
[21] = dose: 200.0 mg/kg/injection, schedule: Q01DX001 (ip), vehicle: saline with Tween-80
[22] = dose: 240.0 mg/kg/injection, schedule: Q01DX005 (ip), vehicle: saline with Tween-80

Measured: T/C

CN1CC=C(c2ccccc2)C(O)C1 (stereo not drawn)
inactive: dose: 12.5 mg/kg/injection, schedule: Q04DX002 (ip), vehicle: saline 116 % of control | [1] 100 % of control | dose: 25.0 mg/kg/injection, schedule: Q04DX002 (ip), vehicle: saline 101 % of control | [2] 99 % of control | dose: 50.0 mg/kg/injection, schedule: Q04DX002 (ip), vehicle: saline 101 % of control | [3] 117 % of control and 97 % of control

O=C(O)c1ccc2c3c(n[se]c13)-c1ccccc1C2=O
inactive: [4] 99 % of control | [5] 103 % of control

O=C(O)C(=O)Nc1cccc2c1ccc1c(=O)cc(C(=O)O)[nH]c12
inactive: [6] 109 % of control | [7] 109 % of control | [8] 104 % of control

Cn1c2ccccc2c2nnc(-n3nc(-c4ccc(Br)cc4)cc3N)nc21
inactive: [9] 98 % of control | dose: 25.0 mg/kg/injection, schedule: Q01DX005 (ip), vehicle: saline with Tween-80 87 % of control | [10] 93 % of control | [11] 95 % of control

CC(C)(Nc1ccccc1)c1cccs1
inactive: [12] 109 % of control | [13] 109 % of control | [14] 95 % of control

Cc1cc(N/N=C/c2ccccn2)nc2c(C)cccc12
inactive: [15] 90 % of control | [10] 91 % of control | [11] 100 % of control

CC(C)(C)NCC(O)CSc1nc(-c2ccc(C(N)=O)s2)cs1 (stereo not drawn)
inactive: [16] 100 % of control | [12] 109 % of control | [13] 109 % of control

CN(C)CCCNC(=O)c1n[nH]c(=S)[nH]c1=O
inactive: [15] 101 % of control | [10] 100 % of control | [11] 95 % of control

CC1(C)OC(C(F)(F)F)(C(F)(F)F)c2cc(C(C)(C)C)cc(C(O)(C(F)(F)F)C(F)(F)F)c2S1
inactive: dose: 30.0 mg/kg/injection, schedule: Q01DX005 (ip), vehicle: saline with Tween-80 120 % of control | [15] 106 % of control | [17] 113 % of control | [10] 120 % of control | [18] 112 % of control | [11] 115 % of control

O=[N+]([O-])c1nc2ccccc2[nH]1
inactive: dose: 6.25 mg/kg/injection, schedule: Q01DX009 (ip), vehicle: saline with Tween-80 101 % of control | dose: 12.5 mg/kg/injection, schedule: Q01DX009 (ip), vehicle: saline with Tween-80 101 % of control | dose: 25.0 mg/kg/injection, schedule: Q01DX009 (ip), vehicle: saline with Tween-80 111 % of control | [16] 108 % of control

COc1c(C(C)C)ccc2c1CCC1C3=C(CCC21C)C(=O)OC3 (stereo not drawn)
inactive: dose: 6.25 mg/kg/injection, schedule: Q01DX009 (ip), vehicle: DMSO 109 % of control | dose: 12.5 mg/kg/injection, schedule: Q01DX009 (ip), vehicle: DMSO 100 % of control | dose: 25.0 mg/kg/injection, schedule: Q01DX009 (ip), vehicle: DMSO 106 % of control

C=C(N)/C=C1/NC(C)=CS1
inactive: [1] 96 % of control | [2] 96 % of control | [3] 91 % of control and 94 % of control

NC(=O)C1=Cc2cccn2-c2ccccc2S1
inactive: dose: 60.0 mg/kg/injection, schedule: Q01DX005 (ip), vehicle: Klucel (hydroxypropylcellulose) (HPC) 105 % of control | dose: 120.0 mg/kg/injection, schedule: Q01DX005 (ip), vehicle: Klucel (hydroxypropylcellulose) (HPC) 101 % of control

CNC(=O)CCC(NS(=O)(=O)c1ccccc1)C(=O)O (stereo not drawn)
inactive: [4] 107 % of control | [5] 96 % of control | [19] 95 % of control

COCc1cccc2ccnc(C)c12
inactive: [20] 104 % of control | [21] 108 % of control | dose: 400.0 mg/kg/injection, schedule: Q01DX001 (ip), vehicle: saline with Tween-80 107 % of control

COc1ccc(OC)c(N2C(=O)C(Cl)=C(Cl)C2=O)c1
inactive: dose: 12.5 mg/kg/injection, schedule: Q01DX001 (ip), vehicle: saline with Tween-80 100 % of control | dose: 25.0 mg/kg/injection, schedule: Q01DX001 (ip), vehicle: saline with Tween-80 100 % of control | dose: 50.0 mg/kg/injection, schedule: Q01DX001 (ip), vehicle: saline with Tween-80 114 % of control

O=C(NC(Cc1ccccc1)C(=O)O)OCc1ccccc1 (stereo not drawn)
inactive: [4] 100 % of control | [5] 92 % of control | dose: 177.0 mg/kg/injection, schedule: Q01DX009 (ip), vehicle: saline with Tween-80 107 % of control | [19] 102 % of control | dose: 266.0 mg/kg/injection, schedule: Q01DX009 (ip), vehicle: saline with Tween-80 109 % of control | [14] 116 % of control

O=C(Cc1ccc(C2=NCCN2)cc1[N+](=O)[O-])c1ccc(C2=NCCN2)cc1
inactive: dose: 0.39 mg/kg/injection, schedule: Q01DX005 (ip), vehicle: saline 97 % of control | dose: 0.79 mg/kg/injection, schedule: Q01DX005 (ip), vehicle: saline 101 % of control | dose: 1.56 mg/kg/injection, schedule: Q01DX005 (ip), vehicle: saline 101 % of control and 87 % of control | dose: 6.25 mg/kg/injection, schedule: Q01DX005 (ip), vehicle: saline 106 % of control and 87 % of control

COc1ccc(/C(C#N)=C\c2ccco2)cc1
inactive: [6] 111 % of control | [7] 110 % of control | [8] 101 % of control

COc1ccc(-c2nnc(-c3ccc(Cl)cc3)c(=O)[nH]2)cc1
inactive: dose: 6.25 mg/kg/injection, schedule: Q01DX005 (ip), vehicle: saline with Tween-80 91 % of control | [9] 90 % of control

COC(=O)/C=C1\C2OC(C1C(=O)OC)C1OC(C)(C)OC21 (stereo not drawn)
inactive: [15] 99 % of control | [10] 103 % of control | [11] 96 % of control

O=C(Nc1ccc(Cl)c(Cl)c1)Oc1ccccc1Cl
inactive: [17] 106 % of control | [18] 107 % of control | [22] 105 % of control

c1nc(NCCCN2CCOCC2)c2c3c(sc2n1)CCCC3
inactive: [15] 109 % of control | [10] 101 % of control | [11] 100 % of control

O=C(O)C(CS)NCCNC(CS)C(=O)O (stereo not drawn)
inactive: dose: 12.5 mg/kg/injection, schedule: Q01DX001 (ip), vehicle: Klucel (hydroxypropylcellulose) (HPC) 97 % of control | dose: 25.0 mg/kg/injection, schedule: Q01DX001 (ip), vehicle: Klucel (hydroxypropylcellulose) (HPC) 97 % of control

CCOC(=O)CN(C=O)C(C)c1ccccc1 (stereo not drawn)
inactive: dose: 25.0 mg/kg/injection, schedule: Q01DX009 (ip), vehicle: saline 114 % of control | [6] 99 % of control | [7] 98 % of control | [8] 99 % of control

CC1CCC2CCCCN2CO1 (stereo not drawn)
inactive: dose: 25.0 mg/kg/injection, schedule: Q01DX005 (ip), vehicle: Klucel (hydroxypropylcellulose) (HPC) 105 % of control | [4] 101 % of control and 122 % of control and 96 % of control | [5] 101 % of control and 109 % of control and 112 % of control | [19] 104 % of control and 114 % of control and 118 % of control

COc1ccc2sc3c(C)ccc(NCCC4CCCN5CCCCC45)c3c(=O)c2c1 (stereo not drawn)
inactive: [20] 87 % of control | [21] 87 % of control

O=C(Nc1ccc(Cl)cc1)Nc1nnc(/C=C/c2ccc(Cl)c(Cl)c2)o1
inactive: [17] 95 % of control | [18] 91 % of control | [22] 101 % of control
